Each block holds one molecule with its values, some of them ahead of it. Calls of active or inactive are those of the source. No cut-off for these calls is given here.
Experiments:
[1] = Stability in PBS buffer assessed as clevage of first masking group half life in at pH 7.3 in presence of CEM/0 cell extract medium by RP-HPLC analysis; type: physicochemical; conditions: human, PBS buffer with CEM/0 cell extract
[2] = Stability of the compound assessed as cleaved half life in presence of CEM/0 cell extract medium measured upto 25 hrs by RP-HPLC analysis; type: physicochemical; conditions: human
[3] = Stability in buffer assessed as pig liver esterase-mediated clevage of first masking group half life at pH 7.3 by RP-HPLC analysis; type: ADME, tissue-based
[4] = Metabolic stability of the compound in mouse liver extract assessed as compound remaining measured after 24 hrs in presence of mouse liver extract medium by RP-HPLC analysis relative to control; type: ADME, tissue-based; conditions: read-out: Stability
[5] = Chemical stability in PBS buffer assessed half life measured after 24 hrs in presence of CEM/0 cell extract medium by RP-HPLC analysis relative to control; type: physicochemical; conditions: human, PBS buffer with CEM/0 cell extract
[6] = Chemical stability in PBS buffer assessed dephosphorylated half life measured after 24 hrs in presence of CEM/0 cell extract medium by RP-HPLC analysis relative to control; type: physicochemical; conditions: human, PBS buffer with CEM/0 cell extract
[7] = Metabolic stability of the compound in pig liver extract assessed as half life measured after 24 hrs in presence of pig liver extract medium by RP-HPLC analysis; type: ADME, tissue-based, Sus scrofa
[8] = test system: Human immunodeficiency virus 2; experiment: Antiviral activity against HIV2 ROD infected in CEM/0 cells assessed as inhibition of HIV induced cytopathogenic effects; type: functional, organism-based; conditions: Human immunodeficiency virus 2, ROD, CCRF-CEM
[9] = test system: Human immunodeficiency virus 1; experiment: Antiviral activity against HIV1 HE strain infected in CEM/0 cells assessed as inhibition of HIV induced cytopathogenic effects; type: functional, organism-based; conditions: Human immunodeficiency virus 1, HE, CCRF-CEM
[10] = test system: Human immunodeficiency virus 2; experiment: Antiviral activity against […] HIV2 ROD infected in CEM-TK(-) cells assessed as inhibition of HIV induced cytopathogenic effects; type: functional, organism-based; conditions: Human immunodeficiency virus 2, ROD
[11] = Cytotoxicity in human CEM/0 cells assessed as reduction in cell viability; type: toxicity, cell-based; conditions: CEM/0 cells (CCRF-CEM)
[12] = test system: Human immunodeficiency virus; experiment: Substrate activity at HIV reverse transcriptase assessed as DNA elongation using 5'-Cy3-CGTTG GTCCT GAAGG AGGAT AGG1T-3' as primer and 3'-GCAACCAGGACTTCCTCCTATCCAAAGACA-5' as template incubated at 37 degree C for 15 mins and at 80 degreeC for 3 mins by primer extension assay; conditions: time 18.0 min
[13] = Metabolic stability of the compound in mouse liver extract assessed as hydrolysis half life measured after 24 hrs in presence of mouse liver extract medium by RP-HPLC analysis; type: ADME, tissue-based
[14] = biological target: DNA polymerase beta (Homo sapiens) (UniProt P06746); experiment: Substrate activity at human DNA polymerase beta using 5'-Cy3-CGTTG GTCCT GAAGG AGGAT AGG1T-3' as primer and 3'-GCAACCAGGACTTCCTCCTATCCAAAGACA-5' as template incubated at 37 degree C for 60 mins and at 80 degreeC for 3 mins by primer extension assay; conditions: time 63.0 min
[15] = test system: Human immunodeficiency virus; experiment: Substrate activity at HIV reverse transcriptase assessed as DNA elongation using 5'-Cy3-CGTTG GTCCT GAAGG AGGAT AGG1T-3' as primer and 3'-GCAACCAGGACTTCCTCCTATCCAAAGACA-5' as template incubated at 37 degree C for 15 mins and at 80 degreeC for 3 mins in presence of TTP by primer extension assay; conditions: time 18.0 min

half-life [1]: 81 h
half-life [2]: 140 min
half-life [3]: 3.16 min
SMILES: CCCCCCCCCC(=O)Oc1ccc(COP(=O)(OCc2ccc(OC(=O)CCCCCCCCC)cc2)OP(=O)([O-])OP(=O)([O-])OC[C@H]2O[C@@H](n3cc(C)c(=O)[nH]c3=O)C[C@@H]2F)cc1.[Na+].[Na+]

remaining at 24 h [4]: 39%
SMILES: CCCCCCCCCCCCCCCCOP(=O)(O)OP(=O)(O)OP(=O)(O)OC[C@H]1O[C@@H](n2cc(C)c(=O)[nH]c2=O)C[C@@H]1F

half-life [5]: 30 min
half-life [6]: 25.8 min
SMILES: Cc1cn([C@H]2C[C@H](O)[C@@H](COP(=O)(O)OP(=O)(O)OP(=O)(O)O)O2)c(=O)[nH]c1=O [DEOXYTHYMIDINE_TRIPHOSPHATE]

half-life [2]: 144 min
half-life [7]: 0.582 min
SMILES: CCCCCCCCCCCCCCCCOP(=O)(OCc1ccc(OC(=O)CCC)cc1)OP(=O)(O)OP(=O)(O)OC[C@H]1O[C@@H](n2cc(C)c(=O)[nH]c2=O)C[C@@H]1F.N.N (stereo partly drawn)

EC50 [8]: 3.2 nM
EC50 [9]: 1.6 nM
EC50 [10]: 70000 nM
SMILES: Cc1cn([C@H]2C[C@H](F)[C@@H](CO)O2)c(=O)[nH]c1=O [ALOVUDINE]
CC50 [11]: > 100000 nM

Activity [12]: Active
half-life [5]: 30 min
half-life [6]: 25.8 min
half-life [13]: 5.04 min
Activity [14]: Active
Activity [15]: Active
SMILES: Cc1cn([C@H]2C[C@H](F)[C@@H](COP(=O)(O)OP(=O)(O)OP(=O)(O)O)O2)c(=O)[nH]c1=O.N.N.N.N

— ChEMBL document CHEMBL5113536, “Triphosphate Prodrugs of the Anti-HIV-Active Compound 3'-Deoxy-3'-fluorothymidine (FLT)” (J Med Chem, 2022)
